For one assay, the system named is A549. The assay can be described thus: cells. The settings on record: Homo sapiens, A549, 72 h.
For another assay, the system named is HT-29. The assay can be described thus: cells. Particulars: Homo sapiens, HT-29, 72 h.
In a further assay the test system is NCI-H460. Put plainly: Antiproliferative activity against human H460 cells after 72 hrs by MTT assay. It counts as functional, cell-based. The settings on record: NCI-H460, 72 h. A general note: Formazan colour is commonly taken as a measure of viable cells.
In a further assay the test system is U-87 MG. Put plainly: Antiproliferative activity against human U87MG cells after 72 hrs by MTT assay. It counts as functional, cell-based, U-87MG ATCC.
Assay [1] addresses Hepatocyte growth factor receptor (Homo sapiens, UniProt P08581). The assay can be described thus: Inhibition of c-MET (unknown origin) using poly (Glu, Tyr) 4:1 as substrate after 30 mins in presence of ATP by HTRF assay. In general terms: TR-FRET usually uses a lanthanide donor and a delayed reading to cut background.
Assay [2] deals with T1, Receptor-type tyrosine-protein kinase FLT3 (Homo sapiens, UniProt P36888).
T1 sequence (P36888 whole entry): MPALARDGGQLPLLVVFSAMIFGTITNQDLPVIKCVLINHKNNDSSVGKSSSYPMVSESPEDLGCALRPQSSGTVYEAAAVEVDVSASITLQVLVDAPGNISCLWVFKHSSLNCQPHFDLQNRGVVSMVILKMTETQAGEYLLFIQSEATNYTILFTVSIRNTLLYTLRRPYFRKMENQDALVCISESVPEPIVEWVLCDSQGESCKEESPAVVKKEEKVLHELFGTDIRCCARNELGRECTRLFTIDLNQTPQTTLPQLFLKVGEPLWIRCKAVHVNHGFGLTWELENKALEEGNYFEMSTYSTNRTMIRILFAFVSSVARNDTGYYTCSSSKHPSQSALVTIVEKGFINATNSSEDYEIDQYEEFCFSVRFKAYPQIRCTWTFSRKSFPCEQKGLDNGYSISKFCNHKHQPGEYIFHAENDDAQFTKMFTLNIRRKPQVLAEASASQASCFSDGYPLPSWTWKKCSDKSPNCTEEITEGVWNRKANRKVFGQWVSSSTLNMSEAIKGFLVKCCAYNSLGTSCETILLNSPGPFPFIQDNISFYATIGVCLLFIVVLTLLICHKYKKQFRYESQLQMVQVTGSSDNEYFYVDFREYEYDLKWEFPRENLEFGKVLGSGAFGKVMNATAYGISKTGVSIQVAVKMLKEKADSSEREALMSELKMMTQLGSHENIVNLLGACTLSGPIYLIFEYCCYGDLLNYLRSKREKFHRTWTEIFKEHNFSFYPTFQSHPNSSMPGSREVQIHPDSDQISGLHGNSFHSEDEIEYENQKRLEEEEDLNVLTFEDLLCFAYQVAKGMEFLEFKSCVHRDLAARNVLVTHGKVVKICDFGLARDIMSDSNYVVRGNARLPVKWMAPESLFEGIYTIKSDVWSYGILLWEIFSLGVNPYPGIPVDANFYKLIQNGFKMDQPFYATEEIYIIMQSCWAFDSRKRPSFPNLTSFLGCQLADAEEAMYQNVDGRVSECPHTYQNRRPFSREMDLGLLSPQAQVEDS
The assay can be described thus: Inhibition of FLT3 (unknown origin) using poly (Glu, Tyr) 4:1 as substrate after 30 mins in presence of ATP by HTRF assay.

Assay [3] addresses Vascular endothelial growth factor receptor 3 (Homo sapiens, UniProt P35916). Put plainly: Inhibition of VEGFR3 (unknown origin) using poly (Glu, Tyr) 4:1 as substrate after 30 mins in presence of ATP by HTRF assay.
Assay [4] concerns the target ALK tyrosine kinase receptor (Homo sapiens, UniProt Q9UM73). Put plainly: Inhibition of ALK (unknown origin) using poly (Glu, Tyr) 4:1 as substrate after 30 mins in presence of ATP by HTRF assay.
The target of assay [5] is Vascular endothelial growth factor receptor 2 (Homo sapiens, UniProt P35968). Put plainly: Inhibition of VEGFR2 (unknown origin) using poly (Glu, Tyr) 4:1 as substrate after 30 mins in presence of ATP by HTRF assay.
Assay [6] addresses Platelet-derived growth factor receptor beta (Homo sapiens, UniProt P09619). The assay can be described thus: Inhibition of PDGFRbeta (unknown origin) using poly (Glu, Tyr) 4:1 as substrate after 30 mins in presence of ATP by HTRF assay.
The target of assay [7] is Mast/stem cell growth factor receptor Kit (Homo sapiens, UniProt P10721). The assay can be described thus: Inhibition of c-KIT (unknown origin) using poly (Glu, Tyr) 4:1 as substrate after 30 mins in presence of ATP by HTRF assay.
Assay [8] concerns the target Platelet-derived growth factor receptor alpha (Homo sapiens, UniProt P16234). The assay can be described thus: Inhibition of PDGFRalpha (unknown origin) using poly (Glu, Tyr) 4:1 as substrate after 30 mins in presence of ATP by HTRF assay.
Assay [9] deals with Epidermal growth factor receptor (Homo sapiens, UniProt P00533). The assay can be described thus: Inhibition of EGFR (unknown origin) using poly (Glu, Tyr) 4:1 as substrate after 30 mins in presence of ATP by HTRF assay.

The IC50 is the concentration at which inhibition is half-maximal.

Chain of Platelet-derived growth factor receptor beta (P09619 whole entry): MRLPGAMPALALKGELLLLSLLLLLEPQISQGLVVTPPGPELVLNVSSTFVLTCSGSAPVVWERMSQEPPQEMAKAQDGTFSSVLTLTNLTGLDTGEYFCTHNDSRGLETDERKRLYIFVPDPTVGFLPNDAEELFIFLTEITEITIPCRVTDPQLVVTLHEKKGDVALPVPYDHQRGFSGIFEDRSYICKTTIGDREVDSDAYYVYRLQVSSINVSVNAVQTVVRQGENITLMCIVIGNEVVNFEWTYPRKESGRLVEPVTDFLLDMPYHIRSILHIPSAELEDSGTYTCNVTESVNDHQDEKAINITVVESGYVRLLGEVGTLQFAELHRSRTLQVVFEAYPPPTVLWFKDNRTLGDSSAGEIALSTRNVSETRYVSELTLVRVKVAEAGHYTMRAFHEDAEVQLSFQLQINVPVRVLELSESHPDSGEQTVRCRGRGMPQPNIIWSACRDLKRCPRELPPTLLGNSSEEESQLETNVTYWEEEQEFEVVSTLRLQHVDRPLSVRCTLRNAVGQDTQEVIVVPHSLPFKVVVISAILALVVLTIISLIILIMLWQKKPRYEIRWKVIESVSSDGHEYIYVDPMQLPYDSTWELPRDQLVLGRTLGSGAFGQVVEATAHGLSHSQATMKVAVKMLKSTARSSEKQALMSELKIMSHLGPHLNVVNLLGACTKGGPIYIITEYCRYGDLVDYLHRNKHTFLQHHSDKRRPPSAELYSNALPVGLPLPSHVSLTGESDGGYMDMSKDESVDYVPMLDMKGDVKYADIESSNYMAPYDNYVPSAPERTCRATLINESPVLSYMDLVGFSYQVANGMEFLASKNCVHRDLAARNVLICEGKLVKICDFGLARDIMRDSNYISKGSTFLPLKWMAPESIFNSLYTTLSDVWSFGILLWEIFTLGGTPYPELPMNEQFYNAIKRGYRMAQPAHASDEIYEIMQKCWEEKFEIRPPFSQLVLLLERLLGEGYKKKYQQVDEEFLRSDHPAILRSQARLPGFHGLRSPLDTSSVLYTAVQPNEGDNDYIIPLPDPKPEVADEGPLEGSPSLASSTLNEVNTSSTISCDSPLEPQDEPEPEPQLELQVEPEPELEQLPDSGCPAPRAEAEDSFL
Chain of Vascular endothelial growth factor receptor 2 (P35968 whole entry): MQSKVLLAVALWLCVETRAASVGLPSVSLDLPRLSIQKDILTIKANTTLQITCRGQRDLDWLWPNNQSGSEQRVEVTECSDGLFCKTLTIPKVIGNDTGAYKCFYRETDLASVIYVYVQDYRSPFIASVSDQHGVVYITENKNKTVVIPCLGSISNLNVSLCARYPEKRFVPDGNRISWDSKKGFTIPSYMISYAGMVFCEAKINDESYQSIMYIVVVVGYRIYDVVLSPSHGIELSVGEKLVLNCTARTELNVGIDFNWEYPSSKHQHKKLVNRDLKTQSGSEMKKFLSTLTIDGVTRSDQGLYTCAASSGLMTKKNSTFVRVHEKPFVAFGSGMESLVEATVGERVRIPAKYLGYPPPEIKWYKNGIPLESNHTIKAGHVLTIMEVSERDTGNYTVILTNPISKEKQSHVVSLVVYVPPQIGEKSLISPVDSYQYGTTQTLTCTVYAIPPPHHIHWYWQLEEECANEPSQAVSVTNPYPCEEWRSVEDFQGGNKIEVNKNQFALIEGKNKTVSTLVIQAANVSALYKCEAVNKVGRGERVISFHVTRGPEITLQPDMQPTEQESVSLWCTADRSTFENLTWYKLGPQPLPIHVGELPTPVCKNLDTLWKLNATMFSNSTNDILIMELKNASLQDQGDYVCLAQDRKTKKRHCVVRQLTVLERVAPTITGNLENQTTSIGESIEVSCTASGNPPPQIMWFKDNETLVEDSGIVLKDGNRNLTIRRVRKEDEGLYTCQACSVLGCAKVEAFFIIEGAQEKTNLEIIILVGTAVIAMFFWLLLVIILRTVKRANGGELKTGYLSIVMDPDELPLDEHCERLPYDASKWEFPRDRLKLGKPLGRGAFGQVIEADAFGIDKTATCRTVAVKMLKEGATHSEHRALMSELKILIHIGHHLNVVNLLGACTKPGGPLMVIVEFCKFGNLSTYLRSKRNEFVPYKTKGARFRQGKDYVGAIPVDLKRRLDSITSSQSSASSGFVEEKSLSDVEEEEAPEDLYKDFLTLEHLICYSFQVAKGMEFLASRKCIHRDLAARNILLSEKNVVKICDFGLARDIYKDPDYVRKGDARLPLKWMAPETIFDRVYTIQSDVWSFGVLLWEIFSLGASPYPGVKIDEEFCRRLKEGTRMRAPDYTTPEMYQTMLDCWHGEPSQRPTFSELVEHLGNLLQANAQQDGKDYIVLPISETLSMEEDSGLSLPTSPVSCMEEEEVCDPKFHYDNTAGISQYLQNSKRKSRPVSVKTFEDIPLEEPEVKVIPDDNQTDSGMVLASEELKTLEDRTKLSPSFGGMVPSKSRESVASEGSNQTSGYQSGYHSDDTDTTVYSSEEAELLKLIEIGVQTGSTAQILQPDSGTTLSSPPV
Chain of Platelet-derived growth factor receptor alpha (P16234 whole entry): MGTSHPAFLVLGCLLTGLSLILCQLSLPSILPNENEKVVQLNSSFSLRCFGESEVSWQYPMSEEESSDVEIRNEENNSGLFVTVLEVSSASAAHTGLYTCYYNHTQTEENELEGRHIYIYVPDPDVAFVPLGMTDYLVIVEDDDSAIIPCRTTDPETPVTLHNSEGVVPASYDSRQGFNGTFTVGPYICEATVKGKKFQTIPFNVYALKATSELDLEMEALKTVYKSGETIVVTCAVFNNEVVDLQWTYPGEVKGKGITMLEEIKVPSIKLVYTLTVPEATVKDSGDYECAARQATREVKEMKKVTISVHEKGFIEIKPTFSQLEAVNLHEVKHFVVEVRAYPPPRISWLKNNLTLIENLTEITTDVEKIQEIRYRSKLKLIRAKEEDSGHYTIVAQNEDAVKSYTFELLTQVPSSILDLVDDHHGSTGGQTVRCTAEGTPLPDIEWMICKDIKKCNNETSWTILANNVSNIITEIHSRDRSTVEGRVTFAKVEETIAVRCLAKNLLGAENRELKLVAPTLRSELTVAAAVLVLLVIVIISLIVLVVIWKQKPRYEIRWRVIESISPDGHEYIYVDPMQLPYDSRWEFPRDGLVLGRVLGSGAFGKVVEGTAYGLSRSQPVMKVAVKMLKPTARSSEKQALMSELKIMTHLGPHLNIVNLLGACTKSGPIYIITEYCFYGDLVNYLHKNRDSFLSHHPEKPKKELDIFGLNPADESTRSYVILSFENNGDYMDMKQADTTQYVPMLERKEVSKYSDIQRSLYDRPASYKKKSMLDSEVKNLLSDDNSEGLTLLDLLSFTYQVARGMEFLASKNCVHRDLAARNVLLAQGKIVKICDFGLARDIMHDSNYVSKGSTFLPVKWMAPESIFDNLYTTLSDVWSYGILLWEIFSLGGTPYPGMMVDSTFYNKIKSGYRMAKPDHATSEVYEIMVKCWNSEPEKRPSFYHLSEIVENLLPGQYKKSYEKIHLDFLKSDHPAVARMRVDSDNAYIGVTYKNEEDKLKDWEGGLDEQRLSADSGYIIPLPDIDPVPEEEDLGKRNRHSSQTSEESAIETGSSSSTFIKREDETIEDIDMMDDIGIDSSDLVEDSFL
Chain of Mast/stem cell growth factor receptor Kit (P10721 whole entry): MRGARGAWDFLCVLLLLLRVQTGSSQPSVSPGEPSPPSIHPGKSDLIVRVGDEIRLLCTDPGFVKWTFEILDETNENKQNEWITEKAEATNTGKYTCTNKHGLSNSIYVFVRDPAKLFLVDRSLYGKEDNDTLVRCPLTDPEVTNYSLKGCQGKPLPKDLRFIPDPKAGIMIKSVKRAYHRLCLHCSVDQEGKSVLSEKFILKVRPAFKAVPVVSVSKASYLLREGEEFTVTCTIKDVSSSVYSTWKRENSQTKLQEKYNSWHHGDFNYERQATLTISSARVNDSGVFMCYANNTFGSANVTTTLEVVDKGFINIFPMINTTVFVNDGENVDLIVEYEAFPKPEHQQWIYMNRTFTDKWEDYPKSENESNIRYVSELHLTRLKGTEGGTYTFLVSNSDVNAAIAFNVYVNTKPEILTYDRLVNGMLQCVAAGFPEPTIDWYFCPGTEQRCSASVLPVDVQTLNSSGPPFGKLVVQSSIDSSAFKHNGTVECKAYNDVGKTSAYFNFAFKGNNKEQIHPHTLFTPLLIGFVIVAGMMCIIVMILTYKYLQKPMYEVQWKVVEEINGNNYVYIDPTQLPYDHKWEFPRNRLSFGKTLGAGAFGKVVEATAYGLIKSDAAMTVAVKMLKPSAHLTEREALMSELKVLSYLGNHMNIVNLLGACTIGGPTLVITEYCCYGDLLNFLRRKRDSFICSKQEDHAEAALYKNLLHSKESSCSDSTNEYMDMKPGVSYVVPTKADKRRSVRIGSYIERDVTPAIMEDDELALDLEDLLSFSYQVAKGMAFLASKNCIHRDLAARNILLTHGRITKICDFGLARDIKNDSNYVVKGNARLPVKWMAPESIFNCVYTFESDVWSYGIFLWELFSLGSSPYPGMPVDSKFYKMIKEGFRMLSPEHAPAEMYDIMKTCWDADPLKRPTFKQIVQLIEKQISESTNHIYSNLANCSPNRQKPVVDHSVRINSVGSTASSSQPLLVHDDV
Description for A549: Antiproliferative activity against human A549 cells after 72 hrs by MTT assay

As for `CCNC(=O)c1cc(Oc2ccc(NC(=O)c3cc4cccnc4n(-c4ccc(Cl)cc4)c3=O)cc2)ccn1`, the IC50 in the assay with A549 was found to be 0.25 µM; with HT-29, 0.33 µM.
On to `CNC(=O)c1cc(Oc2ccc(NC(=O)c3cc4cccnc4n(-c4ccc(F)c(Cl)c4)c3=O)cc2)ccn1`, for which the IC50 in the assay on A549 was determined as 1.56 µM; in the assay on HT-29, 1.81 µM.
With `CNC(=O)c1cc(Oc2ccc(NC(=O)c3cc4cccnc4n(-c4ccccc4F)c3=O)cc2)ccn1`, the IC50 amounted to 0.59 µM in the assay on NCI-H460, 3.36 µM with U-87 MG, 0.61 µM with A549 and 0.26 µM in the assay on HT-29.
In the case of `CNC(=O)c1cc(Oc2ccc(NC(=O)c3cc4cccnc4n(-c4ccc(OC)cc4)c3=O)cc2)ccn1`, the IC50 in the assay on A549 turned out to be 3.11 µM; in the assay on HT-29 it was 0.92 µM.
Take `CCCNC(=O)c1cc(Oc2ccc(NC(=O)c3cc4cccnc4n(-c4ccc(F)cc4)c3=O)cc2)ccn1`: the IC50 in the assay on NCI-H460 came out at 0.12 µM; with U-87 MG it was 0.96 µM; in assay [1] it was 0.00261 µM; in assay [2], 0.00218 µM; in [3], 0.0236 µM; in assay [4], 0.186 µM. Moreover, the IC50 is 0.291 µM in [5]; 0.482 µM in [6]; 0.529 µM in [7]; 0.691 µM in [8]; > 100 µM in assay [9]; 0.062 µM with A549. The compound also came in with an IC50 in the assay with HT-29 of 0.084 µM.
For the compound `CNC(=O)c1cc(Oc2ccc(NC(=O)c3cc4cccnc4n(-c4ccc(C(F)(F)F)cc4Cl)c3=O)cc2)ccn1`, the IC50 amounted to 2.11 µM in the assay with NCI-H460, 19.8 µM with U-87 MG, 2.09 µM in the assay with A549 and 3.19 µM in the assay on HT-29.
Turning to `CCCNC(=O)c1cc(Oc2ccc(NC(=O)c3cc4cccnc4n(-c4ccc(OC)cc4)c3=O)cc2)ccn1`, the IC50 in the assay on NCI-H460 came out at 1.73 µM; with U-87 MG it was 8.21 µM; with A549, 0.82 µM; in the assay with HT-29, 1.56 µM.
As for `CNC(=O)c1cc(Oc2ccc(NC(=O)c3cc4cccnc4n(-c4ccc(F)cc4)c3=O)cc2)ccn1`, the IC50 was 0.21 µM in the assay with NCI-H460, 2.91 µM in the assay on U-87 MG, 0.11 µM in the assay with A549 and 0.16 µM with HT-29.
In the same order, the values of `CCCNC(=O)c1cc(Oc2ccc(NC(=O)c3cc4cccnc4n(-c4ccc(F)c(Cl)c4)c3=O)cc2)ccn1` are 1.6 µM, 3.59 µM, 0.59 µM and 0.92 µM.
In the case of `CCCNC(=O)c1cc(Oc2ccc(NC(=O)c3cc4cccnc4n(-c4ccccc4)c3=O)cc2)ccn1`, the IC50 worked out at 0.11 µM with NCI-H460, 1.51 µM in the assay with U-87 MG, 0.095 µM in the assay with A549 and 0.098 µM with HT-29.
On to `CCNC(=O)c1cc(Oc2ccc(NC(=O)c3cc4cccnc4n(-c4ccc(C(F)(F)F)cc4Cl)c3=O)cc2)ccn1`, for which the results for the IC50 in the assay with A549 and in the assay with HT-29 were 3.29 µM and 4.77 µM, respectively.
Regarding `CNC(=O)c1cc(Oc2ccc(NC(=O)c3cc4cccnc4n(-c4ccc(Br)cc4)c3=O)cc2)ccn1`, the IC50 in the assay with NCI-H460 stood at 3.71 µM; in the assay on U-87 MG, 15 µM; in the assay with A549 it was 1.05 µM; in the assay with HT-29, 1.18 µM.
For the compound `CCCNC(=O)c1cc(Oc2ccc(NC(=O)c3cc4cccnc4n(-c4ccc(Br)cc4)c3=O)cc2)ccn1`, the IC50 in the assay with NCI-H460 was 0.62 µM; in the assay on U-87 MG, 5.19 µM; with A549 it was 0.15 µM; in the assay on HT-29, 0.53 µM.
`CNC(=O)c1cc(Oc2ccc(NC(=O)c3cc4cccnc4n(-c4ccc(Br)cc4F)c3=O)cc2)ccn1`: the IC50 worked out at 1.42 µM in the assay on A549 and 1.95 µM with HT-29.
Consider `CNC(=O)c1cc(Oc2ccc(NC(=O)c3cc4cccnc4n(-c4ccccc4)c3=O)cc2)ccn1`, for which the IC50 with NCI-H460 turned out to be 0.32 µM; in the assay on U-87 MG, 1.82 µM; with A549, 0.2 µM; in the assay on HT-29, 0.25 µM.
With `CCNC(=O)c1cc(Oc2ccc(NC(=O)c3cc4cccnc4n(-c4ccccc4F)c3=O)cc2)ccn1`, the IC50 with NCI-H460 is 1.23 µM; with U-87 MG it was 3.25 µM; with A549 it was 0.49 µM; in the assay on HT-29, 0.26 µM.
`CCNC(=O)c1cc(Oc2ccc(NC(=O)c3cc4cccnc4n(-c4ccc(Br)cc4)c3=O)cc2)ccn1`: the results for the IC50 in the assay with A549 and in the assay on HT-29 were 0.91 µM and 1.16 µM, respectively.
In the same order, the values of `CCNC(=O)c1cc(Oc2ccc(NC(=O)c3cc4cccnc4n(-c4ccc(F)c(Cl)c4)c3=O)cc2)ccn1` are 1.92 µM and 2.6 µM.
In the same order, the values of `CNC(=O)c1cc(Oc2ccc(NC(=O)c3cc4cccnc4n(-c4ccc(Cl)cc4)c3=O)cc2)ccn1` are 0.37 µM and 0.39 µM.
As for `CCNC(=O)c1cc(Oc2ccc(NC(=O)c3cc4cccnc4n(-c4ccccc4)c3=O)cc2)ccn1`, the IC50 in the assay on NCI-H460 was 1.12 µM; in the assay on U-87 MG it was 2.65 µM; with A549 it was 0.16 µM; in the assay on HT-29 it was 0.22 µM.
In the same order, the values of `CCCNC(=O)c1cc(Oc2ccc(NC(=O)c3cc4cccnc4n(-c4ccc(C(F)(F)F)cc4Cl)c3=O)cc2)ccn1` are 3.17 µM, 10.9 µM, 1.25 µM and 1.96 µM.
In the same order, the values of `CCCNC(=O)c1cc(Oc2ccc(NC(=O)c3cc4cccnc4n(-c4ccccc4F)c3=O)cc2)ccn1` are 0.39 µM, 2.32 µM, 0.15 µM and 0.2 µM.
Take `CCNC(=O)c1cc(Oc2ccc(NC(=O)c3cc4cccnc4n(-c4ccc(F)cc4)c3=O)cc2)ccn1`: the IC50 with NCI-H460 was 0.22 µM; with U-87 MG, 1.13 µM; in the assay on A549 it was 0.12 µM; in the assay on HT-29 it was 0.19 µM.
With `CCNC(=O)c1cc(Oc2ccc(NC(=O)c3cc4cccnc4n(-c4ccc(OC)cc4)c3=O)cc2)ccn1`, the IC50 amounted to 1.72 µM in the assay on NCI-H460, 7.21 µM in the assay on U-87 MG, 2.01 µM in the assay with A549 and 3.35 µM in the assay with HT-29.
In the case of `CCCNC(=O)c1cc(Oc2ccc(NC(=O)c3cc4cccnc4n(-c4ccc(Cl)cc4)c3=O)cc2)ccn1`, the 50% inhibitory concentration (IC50) in the assay with A549 was determined as 0.12 µM; in the assay on HT-29, 0.39 µM.
For the compound `CCNC(=O)c1cc(Oc2ccc(NC(=O)c3cc4cccnc4n(-c4ccc(Br)cc4F)c3=O)cc2)ccn1`, the IC50 stood at 1.79 µM with NCI-H460, 10.3 µM in the assay with U-87 MG, 1.82 µM in the assay with A549 and 2.07 µM in the assay on HT-29.
In the case of `CCCNC(=O)c1cc(Oc2ccc(NC(=O)c3cc4cccnc4n(-c4ccc(Br)cc4F)c3=O)cc2)ccn1`, the IC50 worked out at 1.31 µM in the assay on A549 and 2.16 µM in the assay on HT-29.

Source of the values: ChEMBL document CHEMBL4184123, “Discovery of novel 2-substituted-4-phenoxypyridine derivatives as potential antitumor agents” (Bioorg Med Chem Lett, 2018).
